This is an account of results in patent US7495104B2, “Quinoline or quinazoline derivatives inhibiting auto-phosphorylation of fibroblast growth factor receptors” (Kirin Beer Kabushiki Kaisha, priority 2001, dated 2009).

Some results are limits rather than exact numbers.

The target in this test is Bek (Homo sapiens, UniProt P21802). Briefly: Inhibitory activity against Bek-autophosphorylation using ELISA method in OCUM-2MD3 cells. Type of test: cell-based. Particulars: 1 hr with compound, read-out: IC50 (concentration necessary for inhibiting 50% of Bek-phosphorylation). Summed up: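 Sandwich ELISA (anti-phosphotyrosine capture, anti-Bek detection, peroxidase, 450 nm) measured Bek autophosphorylation in OCUM-2MD3 lysates after 1 hr compound treatment at 37° C in 0.1% serum medium. IC50 derived by scaling between no-drug (100%) and excess positive control at 1000 nM (0%).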
Bek, sequence (P21802 431-767 limits assumed): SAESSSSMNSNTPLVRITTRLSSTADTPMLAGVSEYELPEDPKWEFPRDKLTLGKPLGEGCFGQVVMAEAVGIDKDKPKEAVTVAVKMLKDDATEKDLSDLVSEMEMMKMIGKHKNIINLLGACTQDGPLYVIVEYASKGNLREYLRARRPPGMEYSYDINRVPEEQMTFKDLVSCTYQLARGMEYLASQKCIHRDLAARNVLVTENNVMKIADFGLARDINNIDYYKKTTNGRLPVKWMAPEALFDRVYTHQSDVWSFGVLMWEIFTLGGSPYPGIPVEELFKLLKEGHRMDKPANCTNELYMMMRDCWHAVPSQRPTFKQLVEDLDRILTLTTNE
On the technique in general: ELISA stands for enzyme-linked immunosorbent assay.
As for `CCN(CCO)CCOc1cc2nccc(Oc3ccc(NC(=O)NCCC(C)(C)C)c(F)c3)c2cc1OC` [Compound 341, 1-(3,3-Dimethyl-butyl)-3-[4-(7-{2-[ethyl-(2-hydroxy-ethyl)-amino]-ethoxy}-6-methoxy-quinolin-4-yloxy)-2-fluoro-phenyl]-urea], the IC50 was 28.9 nM.

Regarding `COc1cc2nccc(Oc3ccc(Nc4ccc(C(C)C)cc4)cc3)c2cc1OC` [Compound 9, [4-(6,7-Dimethoxyquinolin-4-yloxy)phenyl]-(4-isopropylphenyl)-amine], the IC50 was 313 nM.

`COc1cc2c(Oc3ccc(Nc4ccc(C(C)(C)C)cc4)cc3)ccnc2cc1OCCN1CCOCC1` [Compound 37, (4-Tert-butylphenyl)-{4-[6-methoxy-7-(2-morpholin-4-ylethoxy)quinolin-4-yloxy]phenyl}amine]: the IC50 is 345 nM.

In the case of `COc1cc2c(Oc3ccc(NC(=O)NCCC(C)(C)C)cc3)ccnc2cc1OCCCBr` [Compound 147, 1-{4-[7-(3-Bromo-propoxy)-6-methoxy-quinolin-4-yloxy]-phenyl}-3-(3,3-dimethyl-butyl)-urea], the IC50 is 654 nM.

With `COCC1CCN(CCCOc2cc3nccc(Oc4ccc(NC(=O)NCCC(C)(C)C)cc4)c3cc2OC)CC1` [Compound 282, 1-(3,3-Dimethyl-butyl)-3-(4-{6-methoxy-7-[3-(4-methoxymethyl-piperidin-1-yl)-propoxy]-quinolin-4-yloxy}-phenyl)-urea], the IC50 was 31.6 nM.

As for `COc1cc2c(Oc3ccc(Nc4ccc(C(C)(C)C)cc4)cc3)ccnc2cc1OCCN(CCO)CCO` [Compound 48, 2-[(2-{4-[4-(4-Tert-butyl-phenylamino)phenoxy]-6-methoxy-quinolin-7-yloxy}ethyl)-(2-hydroxyethyl)amino]ethanol], the IC50 came to 33.5 nM.

On to `CCN(CC)CC(O)COc1cc2nccc(Oc3ccc(Nc4ccc(C(C)(C)C)cc4)cc3)c2cc1OC` (stereo not shown) [Compound 60, 1-{4-[4-(4-Tert-butyl-phenylamino)phenoxy]-6-methoxyquinolin-7-yloxy}-3-diethylaminopropan-2-ol], for which the IC50 is 203 nM.

With `COc1cc2c(Oc3ccc(NC(=O)NCCC(C)(C)C)cc3Cl)ccnc2cc1OCCN1CCOCC1` [Compound 126, 1-{3-Chloro-4-[6-methoxy-7-(2-morpholin-4-yl-ethoxy)-quinolin-4-yloxy]-phenyl}-3-(3,3-dimethyl-butyl)-urea], the IC50 amounted to 13.3 nM.

On to `COc1cc2nccc(Oc3ccc(NC(=O)NCCC(C)(C)C)cc3F)c2cc1OCCCN1CC(C)OC(C)C1` (stereo not shown) [Compound 231, 1-(3,3-Dimethyl-butyl)-3-(4-{6-[3-(2,6-dimethyl-morpholin-4-yl)-propoxy]-7-methoxy-quinolin-4-yloxy}-3-fluoro-phenyl)-urea], for which the IC50 stood at 113 nM.

As for `COc1cc2c(Oc3ccc(Nc4ccc(C(C)(C)C)cc4)c(Cl)c3)ccnc2cc1OCCCN1CCC(CCO)CC1` [Compound 294, 2-[1-(3-{4-[4-(4-Tert-butyl-phenylamino)-3-chloro-phenoxy]-6-methoxy-quinolin-7-yloxy}-propyl)-piperidin-4-yl]-ethanol], the IC50 stood at 1100 nM.

Consider `COc1cc2nccc(Oc3ccc(Nc4ccc(C(C)(C)C)cc4)cc3F)c2cc1OC` [Compound 18, (4-Tert-butylphenyl)-[4-(6,7-dimethoxyquinolin-4-yloxy)-3-fluorophenyl]amine], for which the IC50 was 155 nM.

On to `COc1cc2nccc(Oc3ccc(Nc4ccc(N5CCOCC5)cc4)cc3)c2cc1OC` [Compound 44, [4-(6,7-Dimethoxyquinolin-4-yloxy)phenyl]-(4-morpholin-4-ylphenyl)amine], for which the IC50 was found to be 76.5 nM.

Consider `COc1cc2c(Oc3ccc(NC(=O)NCCC(C)(C)C)c(Cl)c3)ccnc2cc1OCC(O)CN(C)C` (stereo not shown) [Compound 199, 1-{2-Chloro-4-[7-(3-dimethylamino-2-hydroxy-propoxy)-6-methoxy-quinolin-4-yloxy]-phenyl}-3-(3,3-dimethyl-butyl)-urea], for which the IC50 was below 10 nM.
